Measurements: patent US20160214958A1, “COMPOUNDS AND USE FOR TREATING CANCER” (GLIONOVA AB, priority 2013, published 2016)
Like-named read-outs stand apart in the source and are kept apart here.

Legend:
[1] = test system: U87 glioma cell; settings: at concentrations of 10 micromolar; cited from earlier work
[2] = test system: glioma stem cell line U3013; test: In vitro cancer cell and CSC viability assay (ATP quantification, CellTiterGlo); assay type: cell-based, human
Procedure: The ability of Examples S1-S23 to selectively induce cytotoxicity in glioma/glioblastoma cancer cells or glioma/glioblastoma cancer stem cells was determined by quantification of ATP production in glioma stem cell line U3013 in the presence of using CellTiterGlo reagent (Promega). Cells were exposed to compound in serial dilution in the range 1 nM to 50 µM for 24 hours and viability assessed with respect to negative control (dmso, no cell death) and positive control (staurosporine, full cell death). […] The EC50 of S10 remained largely similar at 2, 3 and 4 days of incubation. […] The individual isomers (S21-S23) of racemic S10 were evaluated in order to determine the enantiospecific pharmacology of the individual isomers.
Negative (100% DMSO) and positive (10 mM S10 in 100% DMSO) controls were placed in rows 1-4 and 5-8, respectively, of column 12. The wells were diluted with 190 μl of the corresponding growth media and 5 μl of each well of compound solution transferred to quadruplicate wells of a sterile 384-well black clear bottom plate (BD Falcon) containing GSC at 70% confluency in 45 μl growth media. The plate was incubated for 24 hours, after which the plate was removed from the incubator and each well imaged in bright-field using an Operetta Imaging system (PerkinElmer) at 37° C. and 5% CO2 to determine vacuole accumulation at each concentration. The plate was then allowed to cool to room temperature and each well treated with 25 μl freshly CellTiterGlo (Promega) reagent. The plate was shaken for 15 minutes and luminescence measured using a Victor3 (Perkin Elmer) microtiterplate reader. Total luminescence was normalized relative to control and curve fitting performed using GraphPad Prism (v6.02) software.

[3] = Pharmacokinetic evaluation of Vacquinol-1 stereoisomers, plasma and brain; assay type: in vivo, NMRI (SR/RS) or BALB/c (Vrac) mice
Procedure: The pharmacokinetics of Vacquinol-1 (racemic), Vacquinol-1RS and Vacquinol-1SR, were determined in NMRI (SR/RS) or BALB/c (Vrac) mice following single intravenous (i.v.) or per oral (p.o) administration of 2 or 20 mg/kg Vacquinol-1, respectively. Blood and brain samples were taken from animals at the following nominal time points: 15, 30, and 60 minutes, and 2, 4, 6, 8, 24, 48, 72 and 144 hours after dosing (n=3/time-point). Bioanalytical quantification of Vacquinol-1 was analysed in plasma and brain samples by a UPLC-MS/MS.
Pharmacokinetics were calculated by non-compartmental analysis (NCA) from composite (mean) profiles. Nominal sampling times and dose levels have been used for the NCA calculations.

[4] = test system: glioma stem cell line U3013; test: In vitro cancer cell and CSC viability assay (ATP quantification, CellTiterGlo); assay type: cell-based; settings: Homo sapiens; 3000 cells/cm2, after 24 hours; read-out: EC50, viability of GSCs

O[C@@H](c1cc(C(F)(F)F)nc2c(C(F)(F)F)cccc12)[C@H]1CCCCN1 (racemic) [mefloquine, (2,8-bis(trifluoromethyl)quinolin-4-yl)(piperidin-2-yl)methanol, reference compound]
reduction of U87 glioma cell viability [1]: roughly 50% | IC95 for cell death ([2]; glioblastoma cells (U3013)): 25.2 µM

O[C@@H](c1cc(-c2ccc(Cl)cc2)nc2ccccc12)[C@H]1CCCCN1 [Compound S21, (S)-(2-(4-chlorophenyl)quinolin-4-yl)((R)-piperidin-2-yl)methanol]
AUClast Plasma ([3]; 2 mg/kg i.v., mice): 14100 ng·h/mL | Cmax Brain ([3]; 2 mg/kg i.v., mice): 777 ng/mL | tlast Brain ([3]; 2 mg/kg i.v., mice): 72 h | tlast Plasma ([3]; 2 mg/kg i.v., mice): 72 h | AUClast Brain ([3]; 20 mg/kg p.o., mice): 157000 ng·h/mL | AUClast Plasma ([3]; 20 mg/kg p.o., mice): 183000 ng·h/mL | Cmax Brain ([3]; 20 mg/kg p.o., mice): 1490 ng/mL | tlast Brain ([3]; 20 mg/kg p.o., mice): 144 h | tlast Plasma ([3]; 20 mg/kg p.o., mice): 144 h | Kp ([3]; NMRI (single stereoisomers SR/RS), BALB/c (racemate), mouse, brain and plasma, 20 mg/kg, after oral dosing, read-out: Cmax exposures ratio (Cmax(brain)/Cmax(plasma))): 0.7 | AUC(0-t) ([3]; NMRI (single stereoisomers SR/RS), BALB/c (racemate), mouse, brain, iv, 2 mg/kg i.v., mice, read-out: AUClast Brain): 9050 ng·h/mL | EC50 ([2]; Homo sapiens, U3013, 24 hours exposure, read-out: In vitro efficacy (viability) EC50): 2.67 µM | potency with respect to S10 (viability) ([2]; individual isomers of racemic S10): equal or increased potency

Cn1nnc2c(C(N)=O)ncn2c1=O [temozolomide, reference compound]
EC50 [4]: 139 µM
